Several values for one entry are separate records, joined by “and”; a condition that tells them apart may be missing. Equal values may be shown once.
Experiments:
[1] = tested on: male BKS.Cg-m+/+Leprdb mice; assay: Seminal vesicle weights, androgenic potency (Example 9); assay type: in vivo
Text: Eight week old male BKS.Cg-m^+/+Lepr^db mice were obtained from Jackson Laboratories. These mice have a point mutation in the leptin receptor gene and produce a truncated receptor with impaired signaling capacity. These animals are severely insulin resistant and manifest an uncontrolled rise in blood sugar, severe depletion of the insulin-producing beta-cells of the pancreatic islets, and death by 10 months of age. The male animals also have very low plasma testosterone levels and as a consequence undeveloped seminal vesicle glands. Administration of androgens to these mice produces an increase in seminal vesicle weights similar to that seen in castrated males. Thus these animals can be used to assess androgenic potency of various compounds.
The mice were housed five per cage on Alphacel bedding with ad libitum access to Purina 5015 chow and acidified water. The mice were housed in the Central Animal Facility (6th floor, Pharmacy building) with twelve hours of alternating light and darkness.
A week later, the mice were treated subcutaneously (s.c.) with 0.05 mL fluasterone (16α-fluoro-5-androsten-17-one) suspended in an Emulphor-saline vehicle to give either a dose of 5 mg/kg s.c. or 20 mg/kg s.c. or intraperitoneally (i.p.) with 0.05 mL of fluasterone suspended in an Emulphor-saline vehicle to give a dose of 5 mg/kg. The Control mice received the Emulphor-saline vehicle s.c.
All the mice were anesthetized lightly with isoflurane before treatment with fluasterone to minimize the risk of stressing the mice while giving the s.c. dose. Their food was removed the afternoon before administration with drug and the chow was to the mice the next morning immediately after treatment. All the mice had their chow removed daily and restored just after fluasterone administration. During the week, the mice had access to chow for approximately 6½ hours, while on the weekends, the mice had approximately 4½ hours of access to chow. Mice were treated daily (weekdays and weekends).
Mice were treated daily with fluasterone, for about one month. Then the mice were sacrificed with an overdose of CO2. The seminal vesicles of each mouse were excised, cleaned of adventitia and the coagulating glands, and any liquid was pressed out and then the glands were weighed on a Mettler AE50 balance.

[2] = tested on: Syndrome X patients; assay: Randomized double-blind crossover trial in Syndrome X patients (Example 5c); assay type: in vivo, human; settings: 600 mg twice daily, four weeks
Text: Eleven patients were enrolled in the trial. The average age was 50.2±12.8 years, and there were 10 males and 1 patient enrolled. Body weight and body mass index were 87.8±17.9 kg and 27.7±3.0 kg/m^2, respectively. All patients carried a diagnosis of dyslipidemia, including elevated triglycerides, for an average of 11.7±6.4 years.
In this randomized, double-blind, crossover study, the 11 patients underwent eligibility screening (physical exam, medical history, laboratory evaluation, PSA, TSH), followed by a six-week lead-in phase (study weeks 1-6) that included diet (AHA Step II), and discontinuation of lipid-lowering therapy. At week 4, qualifying lipid testing was performed, followed by randomization to study treatment two weeks later. Four-weeks of each of the two study treatments, fluasterone 600 mg twice daily or placebo, were then administered (weeks 7 thru 10 and 15 thru 18), separated by a 4-week washout period. At baseline, and at the end of each treatment period measurement of total serum cholesterol, triglycerides, apolipoprotein A1, and the cholesterol and triglyceride content of VLDL, LDL, and HDL was done.
The baseline triglyceride level (mg/dL) was 509±184 and the baseline HDL level (mg/dL) was 33.0±3.5.

[3] = 5 mg/kg, i.p. daily about one month, individual mice
[4] = 5 mg/kg, s.c. daily about one month, individual mice
[5] = 20 mg/kg, s.c. daily about one month, individual mice

C[C@]12CCCCC1=CC[C@@H]1[C@@H]2CC[C@]2(C)C(=O)[C@H](F)C[C@@H]12 [fluasterone, 16α-fluoro-5-androsten-17-one]
Seminal Vesicles [1, 3]: 85.6 mg and 81.8 mg and 71.9 mg and 81.0 mg
s.v./b.w. [1, 3]: 2.1084 and 1.6166 and 1.5630 and 2.0301
Seminal Vesicles ([1]; 5 mg/kg, i.p., Average, p < 0.005): 80.1 p < 0.005 mg
s.v./b.w. ([1]; 5 mg/kg, i.p., Average, p < 0.01): 1.8295
Seminal Vesicles [1, 4]: 40.7 mg and 43.4 mg and 44.5 mg and 42.2 mg and 41.9 mg
s.v./b.w. [1, 4]: 0.8568 and 1.1361 and 0.9570 and 0.9420 and 0.9566
Seminal Vesicles ([1]; 5 mg/kg, s.c., Average): 42.5 mg
s.v./b.w. ([1]; 5 mg/kg, s.c., Average, n.s.): 0.9697 n.s.
Seminal Vesicles [1, 5]: 39.6 mg and 35.8 mg and 35.4 mg and 34.6 mg
s.v./b.w. [1, 5]: 0.8684 and 1.0000 and 0.8872 and 0.8065
Seminal Vesicles ([1]; 20 mg/kg, s.c., Average, n.s.): 36.4 n.s. mg
s.v./b.w. ([1]; 20 mg/kg, s.c., Average, n.s.): 0.8905 n.s.
Androgenicity ([1]; 200 mg/kg p.o. dose, mouse): lack of androgenicity
Effect on seminal vesicle weights ([1]; i.p. route): highly significant increase in seminal vesicle weights
Effect on seminal vesicle weights ([1]; s.c. route at much higher doses): no apparent effect on seminal vesicle weights
Change in HDL levels, least square means±S.E.M. ([2]; baseline 33.0±3.5 mg/dL, p=0.068 vs placebo): −5.8±4.1
Change in triglyceride levels, least square means±S.E.M. ([2]; baseline 509±184 mg/dL, p<0.005 vs placebo): −165±76
